Tested on: Saccharomyces cerevisiae wild type strain BY4743
Test: AF1 metabolite analysis (GC-MS, LC-MS) of yeast cells treated with antifungal drugs
Type: cell-based
Conditions: for # Compounds perturbed: 2x MIC, two hours

C[C@@H]1[C@H](O)[C@@H](C)/C=C/C=C/C=C/C=C/C=C/C=C/C=C/[C@H](O[C@@H]2O[C@H](C)[C@@H](O)[C@H](N)[C@@H]2O)C[C@@H]2O[C@](O)(C[C@@H](O)C[C@@H](O)[C@H](O)CC[C@@H](O)C[C@@H](O)CC(=O)O[C@H]1C)C[C@H](O)[C@H]2C(=O)O [Amphoteracin B]
# Compounds perturbed (P < 0.05): 16
# Compounds perturbed (P < 0.1): 21
Fold Change (platform GC): −0.933
Fold Change, TMS mevalonic acid lactone (platform GC): −0.9767
Fold Change, alanine (platform GC): −0.7773
Fold Change, asparagine (platform GC): −1
Fold Change, aspartic acid (platform GC): −0.9743
Fold Change, campesterol (platform GC): 0
Fold Change, desmosterol (platform GC): 0
Fold Change, disaccaride1 (platform GC): −1
Fold Change, disaccaride2 (platform GC): −0.9977
Fold Change, disaccaride3 (platform GC): −0.9977
Fold Change, ergosterol (platform GC): 2.303
Fold Change, fucosterol (platform GC): −0.6553
Fold Change, glutamine (platform GC): −0.9116
Fold Change, glycanopyrose (platform GC): −0.958
Fold Change, glycerol (platform GC): −0.815
Fold Change, glycine (platform GC): 0.8807
Fold Change, hexadecanoic acid (platform GC): −0.2427
Fold Change, iso citric acid (platform GC): −0.6183
Fold Change, isoleucine (platform GC): −0.9533
Fold Change, lanosterol (platform GC): −1
Fold Change, leucine (platform GC): −0.9443
Fold Change, lysine (platform GC): −0.3925
Fold Change, malic acid (platform GC): −0.963
Fold Change, mevalonic acid lactone (platform GC): −0.1276
Fold Change, octadecanoic acid (platform GC): 0.21
Fold Change, oleic acid (platform GC): −0.4593
Fold Change, ornithine2 (platform GC): −1
Fold Change, ornithine3 (platform GC): −0.9853
Fold Change, palmiteliadic acid (platform GC): 0.515
Fold Change, phenylalanine (platform GC): −0.9797
Fold Change, phosphate (platform GC): −0.007333
Fold Change, pyrimidine (platform GC): −0.185
Fold Change, squalene (platform GC): −0.5745
Fold Change, tetradecanoic acid (platform GC): 0.07967
Fold Change, threonine2 (platform GC): −0.8553
Fold Change, threonine3 (platform GC): −0.8933
Fold Change, tms glutamine3 (platform GC): −0.8935
Fold Change, tms lysine4 (platform GC): −0.9783
Fold Change, tms tyrosine2 (platform GC): −0.3593
Fold Change, tms tyrosine3 (platform GC): −0.9473
Fold Change, valine (platform GC): −0.8673
Fold Change, 2-ketobutyric acid (platform nLC): −0.9992
Fold Change, 2-ketoglutaric (platform nLC): 8.791
Fold Change, 3-indolylacetonitri (platform nLC): −0.9998
Fold Change, 4-methylcatechol (platform nLC): 0
Fold Change, 4aminobutyrate/dimg (platform nLC): −0.1983
Fold Change, 5hydroxyLtryptophan (platform nLC): 0
Fold Change, 6-benzylaminopurine (platform nLC): 0
Fold Change, DLaminoadipic acid (platform nLC): 1.411
Fold Change, NacetylDglucosamine (platform nLC): 0
Fold Change, NacetylLglutamate (platform nLC): −0.1078
Fold Change, NacetylLornithine (platform nLC): 0
Fold Change, abscisic acid (platform nLC): 0
Fold Change, aconitic acid (platform nLC): 0.5426
Fold Change, adenine (platform nLC): 0
Fold Change, adenosine (platform nLC): 0
Fold Change, alanine (platform nLC): 0.1599
Fold Change, allantoic acid (platform nLC): −0.1456
Fold Change, allantoin (platform nLC): 3.97
Fold Change, anthranilic acid (platform nLC): 0
Fold Change, arginine (platform nLC): −0.4885
Fold Change, argininosuccinate (platform nLC): 0
Fold Change, asparagine (platform nLC): 0.1511
Fold Change, aspartic (platform nLC): 0.2407
Fold Change, benzoic acid (platform nLC): 0
Fold Change, biotin (platform nLC): 1.077
Fold Change, caffeic acid (platform nLC): −0.5882
Fold Change, catechol (platform nLC): 0
Fold Change, cinnamic acid (platform nLC): 0
Fold Change, citricanoic/itaconi. (platform nLC): 0
Fold Change, citrulline (platform nLC): 1659
Fold Change, coumaric acid (platform nLC): 0
Fold Change, cytidine (platform nLC): −0.9986
Fold Change, cytosine (platform nLC): 0
Fold Change, decanoic acid (platform nLC): −0.08716
Fold Change, diaminopimelic acid (platform nLC): 0
Fold Change, dihydrofolic acid (platform nLC): 0
Fold Change, estrone (platform nLC): 0
Fold Change, farnesol (platform nLC): 0
Fold Change, folic acid (platform nLC): 0
Fold Change, fumaric/3m2oxobutan (platform nLC): 0.4423
Fold Change, gallic acid (platform nLC): 0.1622
Fold Change, gibberellic (platform nLC): 0
Fold Change, glucosamine6PO4 (platform nLC): −0.9951
Fold Change, glutamic/acetylseri (platform nLC): 0.1414
Fold Change, glutamine/lysine (platform nLC): 0.07919
Fold Change, guanine (platform nLC): 0
Fold Change, guanosine (platform nLC): 1.131
Fold Change, histidine (platform nLC): 0
Fold Change, homogentisic/uric (platform nLC): 0
Fold Change, hydrocortisone (platform nLC): 0
Fold Change, hypoxanthine (platform nLC): 0.1655
Fold Change, indole3pyruvic acid (platform nLC): 0
Fold Change, inostol/glucos/sorb (platform nLC): −0.5905
Fold Change, isocitric/citric/qu (platform nLC): 2.549
Fold Change, jasmonic acid (platform nLC): 0
Fold Change, kinetin (platform nLC): 0
Fold Change, lactic acid (platform nLC): −0.02583
Fold Change, lauric acid (platform nLC): 0.1225
Fold Change, leucine/isoleucine/ (platform nLC): 0.1319
Fold Change, luteolin (platform nLC): 0
Fold Change, malic acid (platform nLC): 0.6212
Fold Change, malonic acid (platform nLC): 0
Fold Change, menthol* (platform nLC): −0.07013
Fold Change, methionine (platform nLC): 0
Fold Change, nicotinic acid (platform nLC): 0.3131
Fold Change, nopaline (platform nLC): 0.3342
Fold Change, oleic acid (platform nLC): 0.689
Fold Change, ornithine (platform nLC): 2.534
Fold Change, orotic acid (platform nLC): 8380
Fold Change, palmitic acid (platform nLC): 0.3979
Fold Change, phenylalanine (platform nLC): −0.1906
Fold Change, phenylpyruvic acid (platform nLC): 0
Fold Change, phosphoenolpyruvate (platform nLC): 0
Fold Change, pinitol (platform nLC): 0
Fold Change, pipecolic acid (platform nLC): 0.08112
Fold Change, porphobilinogen (platform nLC): 0
Fold Change, proline (platform nLC): 0.4603
Fold Change, pyridoxine (platform nLC): −0.1294
Fold Change, retinoic acid (platform nLC): 0
Fold Change, salicylic/HObenzoic (platform nLC): 0
Fold Change, selenoDLmethionine (platform nLC): 0.8515
Fold Change, serine (platform nLC): 0.1091
Fold Change, shikimic acid (platform nLC): 0
Fold Change, sinapinic acid (platform nLC): 0
Fold Change, sorbitol/mannitol (platform nLC): 0.2162
Fold Change, succinic (platform nLC): 0.8663
Fold Change, sucrose (platform nLC): 0.4493
Fold Change, sugar-phosphate (platform nLC): −0.1067
Fold Change, tetradecanoic acid (platform nLC): −0.07723
Fold Change, threonine/homoserin (platform nLC): 0.1267
Fold Change, thymine (platform nLC): 0
Fold Change, tryptophan (platform nLC): 1.142
Fold Change, tyrosine (platform nLC): 0.0982
Fold Change, uracil (platform nLC): 1.511
Fold Change, uridine (platform nLC): 0.1126
Fold Change, urocanic acid (platform nLC): 0
Fold Change, valine (platform nLC): 0.1624
Fold Change, xanthosineDiH2O (platform nLC): 0
Fold Change, zeatin (platform nLC): 0
Fold Change, 4-aminobenzoic acid (platform pLC): 0
Fold Change, 4-methylcatechol (platform pLC): 0
Fold Change, 4ambutyrate/dimglyc (platform pLC): 0.01279
Fold Change, 5hydroxyLtryptophan (platform pLC): 0
Fold Change, 6benzylaminopurine (platform pLC): 0
Fold Change, DL-aminoadipic acid (platform pLC): 0.4703
Fold Change, NacetylDglucosamine (platform pLC): 0
Fold Change, NacetylLglutamate (platform pLC): 0
Fold Change, NacetylLornithine (platform pLC): 1.319
Fold Change, abscisic acid (platform pLC): 0
Fold Change, adenine (platform pLC): 0.1153
Fold Change, adenosine (platform pLC): 0
Fold Change, alanine/sarcosine (platform pLC): 0.2602
Fold Change, allantoic acid (platform pLC): 0
Fold Change, anthranilic acid (platform pLC): 0
Fold Change, arginine (platform pLC): 0.4662
Fold Change, argininosuccinate (platform pLC): 0
Fold Change, asparagine (platform pLC): 0.6344
Fold Change, aspartic acid (platform pLC): 0.3594
Fold Change, biotin (platform pLC): 0
Fold Change, caffeine (platform pLC): 0
Fold Change, citric acid TME (platform pLC): 0
Fold Change, citrulline (platform pLC): 1.798
Fold Change, cytidine (platform pLC): 0
Fold Change, cytosine (platform pLC): 0
Fold Change, diaminopimelic acid (platform pLC): 0
Fold Change, dihydrofolic acid (platform pLC): 0
Fold Change, dipicolinic acid (platform pLC): 0
Fold Change, folic acid (platform pLC): 0
Fold Change, glucosamine (platform pLC): 0
Fold Change, glucosamine6PO4 (platform pLC): 0
Fold Change, glutamate (platform pLC): 0.4341
Fold Change, glutamine/lysine (platform pLC): 0.3981
Fold Change, glutathione (platform pLC): −0.03348
Fold Change, guanosine (platform pLC): 0.7598
Fold Change, histidine (platform pLC): 0
Fold Change, hydrocortisone (platform pLC): 0
Fold Change, hypoxanthine (platform pLC): 0.2057
Fold Change, itaconic acid dimes (platform pLC): 0
Fold Change, kinetin (platform pLC): 0
Fold Change, leucine/isoleucine/ (platform pLC): 0.2746
Fold Change, luteolin (platform pLC): 0
Fold Change, mannitol (platform pLC): 0.4543
Fold Change, methionine (platform pLC): 0.3299
Fold Change, mevalonic lactone (platform pLC): −0.4606
Fold Change, niacinamide (platform pLC): 0
Fold Change, nicotinic acid (platform pLC): −0.9989
Fold Change, nopaline (platform pLC): 0
Fold Change, ornithine (platform pLC): 0.5049
Fold Change, phenylalanine (platform pLC): 0.4036
Fold Change, phosphoenolpyruvate (platform pLC): 0
Fold Change, pipecolic acid (platform pLC): 0.5237
Fold Change, progesterone (platform pLC): 0
Fold Change, proline (platform pLC): 0.6707
Fold Change, pyridoxine (platform pLC): −0.1684
Fold Change, riboflavin (platform pLC): 0
Fold Change, selenoDLmethionine (platform pLC): 1.178
Fold Change, serine (platform pLC): 0.2011
Fold Change, sugar-phosphate (platform pLC): 0
Fold Change, thiamine (platform pLC): 0
Fold Change, threonine/homoserin (platform pLC): 0.3145
Fold Change, thymine (platform pLC): 0
Fold Change, tryptophan (platform pLC): 0
Fold Change, tyrosine (platform pLC): 0.2347
Fold Change, uric acid (platform pLC): 308
Fold Change, urocanic acid (platform pLC): 0
Fold Change, xanthosine(diH2O) (platform pLC): 0
Fold Change, zeatin (platform pLC): 0

Reference: patent US20030229451A1, “Methods and systems for analyzing complex biological systems” (priority 2001, published 2003)
